pIC50, pKi: −log10 of the molar value. Read-outs that look alike come from different tables or passages of the source.
Key:
[1] = biological target: T1, hMeprin α (Homo sapiens, UniProt Q16819); assay: biochemical; type: biochemical; settings: 30° C., 40 mM HEPES pH 7.4; for pIC50: average IC50, 10 μM substrate, read-out: Meprin Alpha IC50; for pKi: average Ki, 4 substrate concentrations (5-40 μM), read-out: Meprin Alpha Ki
T1 sequence (Q16819 66-746): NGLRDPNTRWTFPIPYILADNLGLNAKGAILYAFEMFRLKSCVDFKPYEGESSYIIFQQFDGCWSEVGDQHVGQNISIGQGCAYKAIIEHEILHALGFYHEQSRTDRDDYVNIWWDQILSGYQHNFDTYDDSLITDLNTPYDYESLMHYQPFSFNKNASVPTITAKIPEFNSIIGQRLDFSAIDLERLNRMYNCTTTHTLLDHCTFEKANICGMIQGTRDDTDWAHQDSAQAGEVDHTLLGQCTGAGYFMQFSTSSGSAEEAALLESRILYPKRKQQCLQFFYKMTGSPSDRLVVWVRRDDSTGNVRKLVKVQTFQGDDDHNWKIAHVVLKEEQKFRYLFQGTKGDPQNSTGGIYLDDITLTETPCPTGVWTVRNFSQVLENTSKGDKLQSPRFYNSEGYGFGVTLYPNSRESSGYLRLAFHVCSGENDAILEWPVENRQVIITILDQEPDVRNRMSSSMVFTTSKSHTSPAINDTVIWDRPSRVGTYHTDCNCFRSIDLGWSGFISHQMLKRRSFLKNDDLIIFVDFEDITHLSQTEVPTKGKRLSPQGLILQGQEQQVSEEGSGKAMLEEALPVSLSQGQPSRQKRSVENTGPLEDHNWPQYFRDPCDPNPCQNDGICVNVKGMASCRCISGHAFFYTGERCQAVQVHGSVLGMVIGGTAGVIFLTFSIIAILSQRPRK
Protocol: (§1) A typical assay of 250 μl total volume measured in black 96 well plates consisted of 100 μl buffer, 50 μl enzyme at a final concentration of 5e-8 M to 5e-9 M, 50 μl substrate (0.15 to 80 μM, in buffer, 0.5% DMSO) and 50 μl inhibitor solution (in buffer, 1% DMSO). In case of 125 μl assay volume (black 96 half area well plates) all volumes were cut in half. Enzymatic activity of ADAMs was measured in 384 well plates with 60 μl total assay volume consisting of 20 μl inhibitor, 20 μl buffer, 10 μl enzyme and 10 μl substrate.
(§2) Ki values were assessed combining 4 substrate concentrations (5-40 μM) with at least 5 inhibitor concentrations. […] Initial velocities were determined and converted into concentration units applying a standard curve obtained after complete conversion of different substrate concentrations under assay conditions. All measurements were performed using a fluorescence plate reader (FLUOstar OPTIMA, BMG Labtech) at 30° C. The kinetic parameters were determined at least in duplicates on separate days. The excitation/emission wavelength was 340/420 nm. The kinetic data was evaluated using GraFit software (version 7.0.3, Erithacus Software).
(§3) The following compounds according to the present invention were synthesized using the above general procedures. IC50 refers to the average IC50 values measured as described above, SD (IC50) refers to the standard deviation of the average IC50 values, Ki refers to the average K; values measured as described above, and SD (Ki) to the standard deviation of the average Ki values.

[2] = biological target: T2, hMeprin β (Homo sapiens, UniProt Q16820); assay: Enzymatic assay, cleavage of internally quenched peptide substrate, hMeprin β; type: biochemical
T2 sequence (Q16820 62-701): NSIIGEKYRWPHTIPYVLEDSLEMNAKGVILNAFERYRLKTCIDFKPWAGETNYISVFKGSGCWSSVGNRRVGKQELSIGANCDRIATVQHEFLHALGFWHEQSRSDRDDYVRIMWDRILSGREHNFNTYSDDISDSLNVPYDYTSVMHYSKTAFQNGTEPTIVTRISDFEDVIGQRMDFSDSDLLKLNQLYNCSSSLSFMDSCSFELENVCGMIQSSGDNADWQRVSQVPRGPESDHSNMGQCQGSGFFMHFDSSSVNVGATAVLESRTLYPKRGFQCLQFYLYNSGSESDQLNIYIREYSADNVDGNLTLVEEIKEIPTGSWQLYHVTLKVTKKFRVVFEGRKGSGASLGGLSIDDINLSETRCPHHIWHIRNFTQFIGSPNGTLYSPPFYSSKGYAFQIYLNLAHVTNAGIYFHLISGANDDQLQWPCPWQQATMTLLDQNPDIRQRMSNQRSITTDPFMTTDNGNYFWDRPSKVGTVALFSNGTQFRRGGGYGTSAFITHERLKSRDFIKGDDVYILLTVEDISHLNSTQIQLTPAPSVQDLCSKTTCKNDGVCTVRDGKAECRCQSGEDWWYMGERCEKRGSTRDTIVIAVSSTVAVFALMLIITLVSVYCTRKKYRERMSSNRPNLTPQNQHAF
Protocol: as §1, §2, §3

[3] = average IC50, 10 μM substrate, 30° C., 40 mM Tris pH 8.0, read-out: Meprin Beta IC50

| SMILES | pIC50 [1] | pKi [1] | pKi [2] | pIC50 [2] | pIC50 [2, 3] |
| --- | --- | --- | --- | --- | --- |
| O=C(CN(Cc1cccc(C(=O)O)c1)Cc1ccc2c(c1)OCO2)NO [Example 22, 3-[[1,3-Benzodioxol-5-ylmethyl-[2-(hydroxy-amino)-2-oxo-ethyl]amino]-methyl]benzoic acid] | 5.84 | 6.22 | 6.98 |  |  |
| COc1ccc(CN(CC(=O)NO)Cc2ccc3c(c2)OCO3)cc1 [Example 23] | 5.77 |  |  | 4.70 |  |
| COc1ccc(CN(CC(=O)NO)Cc2ccc(C)cc2)cc1 [Example 24, 2-[(4-Methoxyphenyl)methyl-(p-tolylmethyl)-amino]ethanehydroxamic acid] | 5.63 |  |  | 4.22 |  |
| COc1ccc(CN(CC(=O)NO)Cc2ccc(F)cc2)cc1 [Example 25, 2-[(4-fluorophenyl)methyl-[(4-methoxyphenyl)-methyl]amino]ethanehydroxamic acid] | 5.38 |  |  | 4.09 |  |
| COc1ccc(CN(CC(=O)NO)Cc2ccc(Cl)cc2)cc1 [Example 26, 2-[(4-Chlorophenyl)methyl-[(4-methoxyphenyl)-methyl]amino]ethanehydroxamic acid] | 5.70 |  |  | 4.27 |  |
| COc1ccc(CN(CC(=O)NO)Cc2cccc(OC)c2)cc1 [Example 27, 2-[(3-Methoxyphenyl)methyl-[(4-methoxyphenyl)-methyl]amino]ethanehydroxamic acid] | 5.50 |  |  | 4.46 |  |
| C[C@H](NCc1cccc(C(=O)O)c1)C(=O)NO [Example 28, 3-[[[(1S)-2-(Hydroxyamino)-1-methyl-2-oxo-ethyl]amino]methyl]benzoic acid] | 4.78 |  | 5.51 |  | 5.38 |
| CC(C)[C@H](NCc1cccc(C(=O)O)c1)C(=O)NO [Example 29, 3-[[[(1S)-1-(Hydroxycarbamoyl)-2-methyl-propyl]amino]methyl]benzoic acid] | 4.35 |  |  |  | 4.80 |
| O=C(O)c1cccc(CN[C@@H](Cc2ccccc2)C(=O)NO)c1 [Example 30, 3-[[[(1S)-1-Benzyl-2-(hydroxyamino)-2-oxo-ethyl]amino]methyl]benzoic acid] | 4.99 |  |  |  | 4.81 |
| COc1ccc(CN(CCC(=O)NO)Cc2cccc(C(=O)O)c2)cc1 [Example 31, 3-[[[3-(Hydroxyamino)-3-oxo-propyl]-[(4-methoxyphenyl)methyl]amino]-methyl]benzoic acid] | 6.63 | 7.06 | 6.78 |  | 6.19 |
| CC(C)(NCc1cccc(C(=O)O)c1)C(=O)NO [Example 32, 3-[[[2-(Hydroxyamino)-1,1-dimethyl-2-oxo-ethyl]amino]methyl]benzoic acid] | 3.58 |  |  | 4.41 |  |
| C[C@@H](NCc1cccc(C(=O)O)c1)C(=O)NO [Example 33, 3-{[[(1R)-2-(Hydroxyamino)-1-methyl-2-oxo-ethyl]amino]methyl]benzoic acid] | 4.35 |  | 5.59 |  | 5.37 |
| CC(C)[C@@H](NCc1cccc(C(=O)O)c1)C(=O)NO [Example 34, 3-[[[(1R)-1-(Hydroxycarbamoyl)-2-methyl-propyl]amino]methyl]benzoic acid] | 4.52 |  |  |  | 4.93 |
| O=C(O)c1cccc(CN[C@H](Cc2ccccc2)C(=O)NO)c1 [Example 35, 3-[[[(1R)-1-Benzyl-2-(hydroxyamino)-2-oxo-ethyl]amino]methyl]benzoic acid] | 5.58 |  | 5.87 |  | 5.54 |
| O=C(O)c1cccc(CN[C@@H](C(=O)NO)c2ccccc2)c1 [Example 36, 3-[[[(1R)-2-(Hydroxyamino)-2-oxo-1-phenyl-ethyl]amino]methyl]benzoic acid] | 4.66 |  |  |  | 4.93 |
| O=C(O)c1cccc(CN[C@H](C(=O)NO)c2ccccc2)c1 [Example 37, 3-[[[(1S)-2-(Hydroxyamino)-2-oxo-1-phenyl-ethyl]amino]methyl]benzoic acid] | 4.58 |  |  |  | 4.92 |
| COc1ccc(CN(CCCC(=O)NO)Cc2cccc(C(=O)O)c2)cc1 [Example 38, 3-[[[4-(hydroxyamino)-4-oxo-butyl]-[(4-methoxyphenyl)methyl]amino]-methyl]benzoic acid] | 5.58 | 6.02 | 6.65 |  | 6.13 |
| O=C(O)CC[C@H](NCc1cccc(C(=O)O)c1)C(=O)NO [Example 39, 3-[[[(1S)-3-carboxy-1-(hydroxylcarbamoyl)-propyl]amino]methyl]benzoic acid] | 5.06 | 5.60 | 6.49 |  | 6.18 |
| N#Cc1cccc(CN(CC(=O)NO)Cc2cccc(C#N)c2)c1 [Example 40, 2-[bis[(3-cyanophenyl)methyl]amino]-ethanehydroxamic acid] | 5.83 | 6.28 |  |  | 4.92 |
| NC(=O)c1cccc(CN(CC(=O)NO)Cc2cccc(C(N)=O)c2)c1 [Example 41, 3-[[(3-carbamoylphenyl)methyl-[2-(hydroxyamino)-2-oxo-ethyl]amino]methyl]benzamide] | 5.54 | 6.07 |  |  | 4.88 |
| COC(=O)c1cccc(CN(CC(=O)NO)Cc2cccc(C(N)=O)c2)c1 [Example 42] | 5.45 | 5.92 |  | 4.60 |  |
| COC(=O)c1cccc(CN(CC(=O)NO)Cc2cccc(C(=O)O)c2)c1 [Example 43] | 5.20 | 5.76 | 6.82 | 6.29 |  |
| O=C(O)CC[C@@H](NCc1cccc(C(=O)O)c1)C(=O)NO [Example 44, 3-[[[(1R)-3-carboxy-1-(hydroxycarbamoyl)-propyl]amino]methyl]benzoic acid] | 4.49 |  | 6.56 |  | 6.11 |
| O=C(O)C[C@H](NCc1cccc(C(=O)O)c1)C(=O)NO [Example 45, 3-[[[(1S)-1-(carboxymethyl)-2-(hydroxyamino)-2-oxo-ethyl]amino]methyl]benzoic acid] | 4.22 |  | 6.19 |  | 5.88 |
| O=C(O)C[C@@H](NCc1cccc(C(=O)O)c1)C(=O)NO [Example 46, 3-[[[(1R)-1-(carboxymethyl)-2-(hydroxyamino)-2-oxo-ethyl]amino]methyl]benzoic acid] | 4.82 |  | 6.60 |  | 6.26 |
| O=C(CN(Cc1ccc(F)c(O)c1F)Cc1ccc(F)c(O)c1F)NO [Example 47, 2-[bis[(2,4-difluoro-3-hydroxy-phenyl)-methyl]amino]ethanehydroxamic acid] | 6.20 | 6.72 | 7.92 |  | 7.64 |
| O=C(CN(Cc1cc(F)c(O)c(F)c1)Cc1cc(F)c(O)c(F)c1)NO [Example 48, 2-[bis[(3,5-difluoro-4-hydroxy-phenyl)methyl]-amino]ethanehydroxamic acid] | 5.88 | 6.58 | 6.93 |  | 6.57 |

Source: patent publication US12378186B2, “Inhibitors of meprin α and β” (VIVORYON THERAPEUTICS N.V., priority 2016, dated 2025)
